Reference: publication PMC7932537, “Quantitative profiling of protease specificity” (PLoS Computational Biology, 2021)

Experiments:
MMP-2 = experiment: Substrate phage display with NGS: relative probability (RP) of P3-P1' tetramer clusters; assay type: biochemical, human; conditions: for corresponding MMP2 relative probability (RP): MMP9 tetramers from unique substrates, RP of same tetramer for MMP2; for relative probability (RP) of matching tetramer: P3-P1' tetramer matching the MS detected MMP2 cleavage sequence, RP_above_4.5; for avg_RP: MMP2 - no binning
MMP-9 = experiment: as above; assay type: biochemical, human; conditions: for MMP9 relative probability (RP): MMP9 tetramers from unique substrates, unrounded values
[1] = RP of matching tetramer, common MMP2-9 selectome
[2] = MMP9, RP of the P3-P1' tetramer matching the MS detected cleavage, RP above 4.7, substrate phage display with NGS
[3] = RP of matching tetramer, common MMP2-9 selectome, RP above KL threshold
[4] = RP of the P3-P1' tetramer, MMP2 substrate phage display/NGS, tetramers of physiologic MEROPS substrates common to MMP2 and MMP9
[5] = RP of the P3-P1' tetramer, MMP9 substrate phage display/NGS, tetramers of physiologic MEROPS substrates common to MMP2 and MMP9
[6] = MMP2, RP of matching P3-P1' tetramer, common set of MMP2-9 selectome, RP above KL threshold
[7] = MMP9, RP of matching P3-P1' tetramer, common set of MMP2-9 selectome
[8] = RP of the P3-P1' tetramer cluster contained in the hexamer, 200 nM MMP-2, 2 h, 37°C, two rounds of selection
[9] = MMP9, RP of the P3-P1' tetramer contained in the hexamer substrate (substrate phage display, NGS)
[10] = RP according to MMP2, P3-P1' tetramer of unique physiologic MMP2 substrates from MEROPS
[11] = RP according to MMP9, P3-P1' tetramer of unique physiologic MMP9 substrates from MEROPS
[12] = average relative probability of the tetramer, redundant tetramers averaged out
[13] = tetramer probability in MMP9 set / naive library, 200 nM protease, 2 h, 37°C
[14] = average relative probability of the P3-P1' tetramer, redundant tetramers have been averaged out

PFGV
relative probability (RP) (acc.to MMP2) (MMP-2; [1]): 6.82
relative probability (RP) (MMP-9; [2]): 38.95
relative probability (RP) (acc.to MMP9) (MMP-9; [3]): 38.95

PFLI
corresponding MMP2 relative probability (RP) (MMP-2): 22.6532
MMP9 relative probability (RP) (MMP-9): 0.05937

PGAY
relative probability (RP) (acc.to MMP2) (MMP-2; [4]): 27.42
relative probability (RP) (acc.to MMP9) (MMP-9; [5]): 33.81

PGEI
relative probability (RP) (acc.to MMP2) (MMP-2; [6]): 14.72
relative probability (RP) of matching tetramer (MMP-2): 14.72
relative probability (RP) (acc.to MMP2) (MMP-2; [1]): 14.72
relative probability (RP) (acc.to MMP9) (MMP-9; [7]): 12.83
relative probability (RP) (MMP-9; [2]): 12.83
relative probability (RP) (acc.to MMP9) (MMP-9; [3]): 12.83

PGGV
corresponding MMP2 relative probability (RP) (MMP-2): 10.6032
MMP9 relative probability (RP) (MMP-9): 2.434

PGMI
relative probability (RP) (acc.to MMP2) (MMP-2; [6]): 17.65
relative probability (RP) of matching tetramer (MMP-2): 17.65
relative probability (RP) (acc.to MMP2) (MMP-2; [1]): 17.65
relative probability (RP) (acc.to MMP9) (MMP-9; [7]): 13.36
relative probability (RP) (MMP-9; [2]): 13.36
relative probability (RP) (acc.to MMP9) (MMP-9; [3]): 13.36

PGNR
relative probability (RP) (acc.to MMP2) (MMP-2; [4]): 0.12
relative probability (RP) (acc.to MMP9) (MMP-9; [5]): 0.05

PGPAGQ
relative probability (RP) (MMP-2; [8]): 28.0249
relative probability (RP) (MMP-9; [9]): 28.6679

PGPIGI
relative probability (RP) (MMP-2; [8]): 31.281
relative probability (RP) (MMP-9; [9]): 46.0584

PGPIGW
relative probability (RP) (MMP-2; [8]): 31.1565
relative probability (RP) (MMP-9; [9]): 36.9425

PHGLAT
relative probability (RP) (MMP-2; [8]): 32.9009
relative probability (RP) (MMP-9; [9]): 46.2798

PHGYKG
relative probability (RP) (MMP-2; [8]): 24.9359
relative probability (RP) (MMP-9; [9]): 44.1642

PHNILS
relative probability (RP) (MMP-2; [8]): 24.3767
relative probability (RP) (MMP-9; [9]): 42.0557

PHPRLL
relative probability (RP) (MMP-2; [8]): 23.2612
relative probability (RP) (MMP-9; [9]): 38.6219

PIQLQS
relative probability (RP) (MMP-2; [8]): 19.2979
relative probability (RP) (MMP-9; [9]): 35.2784

PIQW
MMP2 relative probability (RP) (MMP-2; MMP2 tetramers from unique substrates, unrounded values): 8.258
Relative probability (RP) rank (MMP-2; [10]): 5694
relative probability (RP) (MMP-2; [10]): 8.26
relative probability (RP) (acc.to MMP2) (MMP-2; [4]): 8.26
corresponding MMP9 relative probability (RP) (MMP-9; MMP2 tetramers from unique substrates, RP of same tetramer for MMP9): 1.638
Relative probability (RP) rank (MMP-9; [11]): 11221
relative probability (RP) (MMP-9; [11]): 1.64
relative probability (RP) (acc.to MMP9) (MMP-9; [5]): 1.64

PKALPY
relative probability (RP) (MMP-2; [8]): 34.4858
relative probability (RP) (MMP-9; [9]): 48.3581

PKFL [P3-P1' tetramer cluster]
avg_RP (MMP-2; [12]): 23.745
relative probability (RP) (MMP-9; tetramer projected onto MMP-9 cleavage sites determined by Prudova et al. (2010)): 42.75

PKGA
relative probability (RP) (acc.to MMP2) (MMP-2; [4]): 0
relative probability (RP) (acc.to MMP9) (MMP-9; [5]): 1.22

PKGQ
relative probability (RP) (acc.to MMP2) (MMP-2; [4]): 21.45
relative probability (RP) (acc.to MMP9) (MMP-9; [5]): 35.93

PKGYQG
relative probability (RP) (MMP-2; [8]): 30.7046
relative probability (RP) (MMP-9; [9]): 46.8538

PKKL
relative probability (RP) (acc.to MMP2) (MMP-2; [4]): 8.1
relative probability (RP) (acc.to MMP9) (MMP-9; [5]): 23.95

PKWM [P3-P1' tetramer cluster]
avg_RP (MMP-2; [12]): 23.7433
relative probability (RP) (MMP-9; [13]): 51.5185

PLAV
relative probability (RP) (acc.to MMP2) (MMP-2; [6]): 29.15
relative probability (RP) of matching tetramer (MMP-2): 29.15
relative probability (RP) (acc.to MMP2) (MMP-2; [1]): 29.15
relative probability (RP) (acc.to MMP9) (MMP-9; [7]): 44.77
relative probability (RP) (MMP-9; [2]): 44.77
relative probability (RP) (acc.to MMP9) (MMP-9; [3]): 44.77

PLNV
avg_RP (MMP-2; [14]): 24.9266
relative probability (RP) (acc.to MMP2) (MMP-2; [6]): 24.93
relative probability (RP) of matching tetramer (MMP-2): 24.93
relative probability (RP) (acc.to MMP2) (MMP-2; [1]): 24.93
relative probability (RP) (acc.to MMP9) (MMP-9; [7]): 43.38
relative probability (RP) (MMP-9; [2]): 43.38
relative probability (RP) (acc.to MMP9) (MMP-9; [3]): 43.38

PLQLQT
relative probability (RP) (MMP-2; [8]): 30.1017
relative probability (RP) (MMP-9; [9]): 45.7856

PLRQIG
relative probability (RP) (MMP-2; [8]): 11.8624
relative probability (RP) (MMP-9; [9]): 29.0862

PLSL
avg_RP (MMP-2; [14]): 33.5282
relative probability (RP) (acc.to MMP2) (MMP-2; [1]): 33.53
relative probability (RP) (MMP-9; [2]): 48.17
relative probability (RP) (acc.to MMP9) (MMP-9; [3]): 48.17

PLTL
avg_RP (MMP-2; [14]): 24.2603
relative probability (RP) (acc.to MMP2) (MMP-2; [6]): 24.26
relative probability (RP) of matching tetramer (MMP-2): 24.26
relative probability (RP) (acc.to MMP2) (MMP-2; [1]): 24.26
relative probability (RP) (acc.to MMP9) (MMP-9; [7]): 41.2
relative probability (RP) (MMP-9; [2]): 41.2
relative probability (RP) (acc.to MMP9) (MMP-9; [3]): 41.2

PMAL
avg_RP (MMP-2; [12]): 34.1737
relative probability (RP) (acc.to MMP2) (MMP-2; [1]): 34.17
relative probability (RP) (MMP-9; [2]): 48.95
relative probability (RP) (acc.to MMP9) (MMP-9; [3]): 48.95

PMALMD
relative probability (RP) (MMP-2; [8]): 34.1737
relative probability (RP) (MMP-9; [9]): 48.9468

PMAM [P3-P1' tetramer cluster]
avg_RP (MMP-2; [12]): 30.2676
relative probability (RP) (MMP-9; [13]): 51.1831
